The source of these data is the supplement of paper PMC10307832.

For one experiment, the system named is NCI-H838. The experiment is described as follows: relative viability (nuclei count vs DMSO), 5 days (fraction); higher = more cells survive. The following applies: first compound 0.08 µM. The gist of the method: (§1)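 Nuclei were stained with Hoechst during a one-step fixation (final 0.05% Triton X-100, 1% formaldehyde, 1 ug/ml Hoechst) carried out 5 days after dosing, then counted on 4× images. The cells, lung cancer lines in 1536-well plates, had been dosed by pin tool the day after seeding with one drug alone or a fixed anchor-drug dose plus five library-drug doses (not always all listed) in √10 steps. Relative viability is the nuclei count in treated wells divided by that in vehicle wells, and each value is the median of duplicate plates.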
In turn, `CCCCCCCCCCCC1=C(O)C(=O)C=C(O)C1=O` [Embelin] + N=C(N)NC(=N)NCCc1ccccc1 [Phenformin] (partner 250 µM) had a relative viability of 0.641.
Same read-out and setting: as for `CCCCCCCCCCCC1=C(O)C(=O)C=C(O)C1=O` [Embelin] + CCNC(=O)c1noc(-c2cc(C(C)C)c(O)cc2O)c1-c1ccc(CN2CCOCC2)cc1 [Luminespib] (partner 0.01 µM), the figure is 0.292.
On the same count and under the same terms, the same measure for `CCCCCCCCCCCC1=C(O)C(=O)C=C(O)C1=O` [Embelin] + Cc1nc(Nc2ncc(C(=O)Nc3c(C)cccc3Cl)s2)cc(N2CCN(CCO)CC2)n1 [Dasatinib] (partner 0.075 µM): 0.312; for `CCCCCCCCCCCC1=C(O)C(=O)C=C(O)C1=O` [Embelin] + NC(=O)Nc1cc(-c2cccc(F)c2)sc1C(=O)N[C@H]1CCCNC1 [AZD7762] (partner 0.2 µM): 0.946.
Still for that read-out and setting: the same measure for `CCCCCCCCCCCC1=C(O)C(=O)C=C(O)C1=O` [Embelin] + CC(=O)c1c(C)c2cnc(Nc3ccc(N4CCNCC4)cn3)nc2n(C2CCCC2)c1=O [Palbociclib] (partner 0.5 µM): 0.249.

Still in this experiment, the particulars now being: first compound 0.8 µM.
`CCCCCCCCCCCC1=C(O)C(=O)C=C(O)C1=O` [Embelin] + N=C(N)NC(=N)NCCc1ccccc1 [Phenformin] (partner 250 µM): the relative viability is 0.879.
Still for that read-out and setting: as for `CCCCCCCCCCCC1=C(O)C(=O)C=C(O)C1=O` [Embelin] + CCNC(=O)c1noc(-c2cc(C(C)C)c(O)cc2O)c1-c1ccc(CN2CCOCC2)cc1 [Luminespib] (partner 0.01 µM), the figure is 0.449.
Still for that read-out and setting: as for `CCCCCCCCCCCC1=C(O)C(=O)C=C(O)C1=O` [Embelin] + Cc1nc(Nc2ncc(C(=O)Nc3c(C)cccc3Cl)s2)cc(N2CCN(CCO)CC2)n1 [Dasatinib] (partner 0.075 µM), the figure is 0.316; as for `CCCCCCCCCCCC1=C(O)C(=O)C=C(O)C1=O` [Embelin] + NC(=O)Nc1cc(-c2cccc(F)c2)sc1C(=O)N[C@H]1CCCNC1 [AZD7762] (partner 0.2 µM), 1.05.
Same read-out and setting: as for `CCCCCCCCCCCC1=C(O)C(=O)C=C(O)C1=O` [Embelin] + CC(=O)c1c(C)c2cnc(Nc3ccc(N4CCNCC4)cn3)nc2n(C2CCCC2)c1=O [Palbociclib] (partner 0.5 µM), the figure is 0.232.

Still in this experiment, the particulars now being: first compound 2.53 µM.
As for `CCCCCCCCCCCC1=C(O)C(=O)C=C(O)C1=O` [Embelin] + N=C(N)NC(=N)NCCc1ccccc1 [Phenformin] (partner 250 µM), the relative viability is 0.543.
`CCCCCCCCCCCC1=C(O)C(=O)C=C(O)C1=O` [Embelin] + CCNC(=O)c1noc(-c2cc(C(C)C)c(O)cc2O)c1-c1ccc(CN2CCOCC2)cc1 [Luminespib] (partner 0.01 µM): the relative viability came to 0.362.
The compound `CCCCCCCCCCCC1=C(O)C(=O)C=C(O)C1=O` [Embelin] + Cc1nc(Nc2ncc(C(=O)Nc3c(C)cccc3Cl)s2)cc(N2CCN(CCO)CC2)n1 [Dasatinib] (partner 0.075 µM) came in with a relative viability of 0.248.
On to `CCCCCCCCCCCC1=C(O)C(=O)C=C(O)C1=O` [Embelin] + NC(=O)Nc1cc(-c2cccc(F)c2)sc1C(=O)N[C@H]1CCCNC1 [AZD7762] (partner 0.2 µM), for which the relative viability amounted to 0.912.
Compound `CCCCCCCCCCCC1=C(O)C(=O)C=C(O)C1=O` [Embelin] + CC(=O)c1c(C)c2cnc(Nc3ccc(N4CCNCC4)cn3)nc2n(C2CCCC2)c1=O [Palbociclib] (partner 0.5 µM) displayed a relative viability of 0.224.

Staying with this experiment, now noted: first compound 8 µM.
Regarding `CCCCCCCCCCCC1=C(O)C(=O)C=C(O)C1=O` [Embelin] + N=C(N)NC(=N)NCCc1ccccc1 [Phenformin] (partner 250 µM), the relative viability came to 0.516.
On the same count and under the same terms, as for `CCCCCCCCCCCC1=C(O)C(=O)C=C(O)C1=O` [Embelin] + CCNC(=O)c1noc(-c2cc(C(C)C)c(O)cc2O)c1-c1ccc(CN2CCOCC2)cc1 [Luminespib] (partner 0.01 µM), the figure is 0.244; as for `CCCCCCCCCCCC1=C(O)C(=O)C=C(O)C1=O` [Embelin] + Cc1nc(Nc2ncc(C(=O)Nc3c(C)cccc3Cl)s2)cc(N2CCN(CCO)CC2)n1 [Dasatinib] (partner 0.075 µM), 0.224.
The same measure, in the same setting: the same measure for `CCCCCCCCCCCC1=C(O)C(=O)C=C(O)C1=O` [Embelin] + NC(=O)Nc1cc(-c2cccc(F)c2)sc1C(=O)N[C@H]1CCCNC1 [AZD7762] (partner 0.2 µM): 0.992; for `CCCCCCCCCCCC1=C(O)C(=O)C=C(O)C1=O` [Embelin] + CC(=O)c1c(C)c2cnc(Nc3ccc(N4CCNCC4)cn3)nc2n(C2CCCC2)c1=O [Palbociclib] (partner 0.5 µM): 0.21.

The next experiment relates to NCI-H1395. The experiment is described as above. The following applies: first compound 0.08 µM. The method in brief: as §1
The compound `CCCCCCCCCCCC1=C(O)C(=O)C=C(O)C1=O` [Embelin] + N=C(N)NC(=N)NCCc1ccccc1 [Phenformin] (partner 250 µM) came in with a relative viability of 0.46.
For the compound `CCCCCCCCCCCC1=C(O)C(=O)C=C(O)C1=O` [Embelin] + CCNC(=O)c1noc(-c2cc(C(C)C)c(O)cc2O)c1-c1ccc(CN2CCOCC2)cc1 [Luminespib] (partner 0.01 µM), the relative viability came out at 0.741.
In turn, `CCCCCCCCCCCC1=C(O)C(=O)C=C(O)C1=O` [Embelin] + Cc1nc(Nc2ncc(C(=O)Nc3c(C)cccc3Cl)s2)cc(N2CCN(CCO)CC2)n1 [Dasatinib] (partner 0.075 µM) came in with a relative viability of 0.393.
Compound `CCCCCCCCCCCC1=C(O)C(=O)C=C(O)C1=O` [Embelin] + NC(=O)Nc1cc(-c2cccc(F)c2)sc1C(=O)N[C@H]1CCCNC1 [AZD7762] (partner 0.2 µM) gave a relative viability of 0.434.
`CCCCCCCCCCCC1=C(O)C(=O)C=C(O)C1=O` [Embelin] + CC(=O)c1c(C)c2cnc(Nc3ccc(N4CCNCC4)cn3)nc2n(C2CCCC2)c1=O [Palbociclib] (partner 0.5 µM): the relative viability worked out at 0.599.

The experiment is the same for the next values; noted with them: first compound 0.8 µM.
For `CCCCCCCCCCCC1=C(O)C(=O)C=C(O)C1=O` [Embelin] + N=C(N)NC(=N)NCCc1ccccc1 [Phenformin] (partner 250 µM), the relative viability worked out at 0.495.
`CCCCCCCCCCCC1=C(O)C(=O)C=C(O)C1=O` [Embelin] + CCNC(=O)c1noc(-c2cc(C(C)C)c(O)cc2O)c1-c1ccc(CN2CCOCC2)cc1 [Luminespib] (partner 0.01 µM): the relative viability was 0.928.
In turn, `CCCCCCCCCCCC1=C(O)C(=O)C=C(O)C1=O` [Embelin] + Cc1nc(Nc2ncc(C(=O)Nc3c(C)cccc3Cl)s2)cc(N2CCN(CCO)CC2)n1 [Dasatinib] (partner 0.075 µM) registered a relative viability of 0.484.
`CCCCCCCCCCCC1=C(O)C(=O)C=C(O)C1=O` [Embelin] + NC(=O)Nc1cc(-c2cccc(F)c2)sc1C(=O)N[C@H]1CCCNC1 [AZD7762] (partner 0.2 µM) gave a relative viability of 0.425.
Same read-out and setting: as for `CCCCCCCCCCCC1=C(O)C(=O)C=C(O)C1=O` [Embelin] + CC(=O)c1c(C)c2cnc(Nc3ccc(N4CCNCC4)cn3)nc2n(C2CCCC2)c1=O [Palbociclib] (partner 0.5 µM), the figure is 0.623.

Still in this experiment, the particulars now being: first compound 2.53 µM.
For `CCCCCCCCCCCC1=C(O)C(=O)C=C(O)C1=O` [Embelin] + N=C(N)NC(=N)NCCc1ccccc1 [Phenformin] (partner 250 µM), the relative viability amounted to 0.474.
Same read-out and setting: as for `CCCCCCCCCCCC1=C(O)C(=O)C=C(O)C1=O` [Embelin] + CCNC(=O)c1noc(-c2cc(C(C)C)c(O)cc2O)c1-c1ccc(CN2CCOCC2)cc1 [Luminespib] (partner 0.01 µM), the figure is 0.783; as for `CCCCCCCCCCCC1=C(O)C(=O)C=C(O)C1=O` [Embelin] + Cc1nc(Nc2ncc(C(=O)Nc3c(C)cccc3Cl)s2)cc(N2CCN(CCO)CC2)n1 [Dasatinib] (partner 0.075 µM), 0.404; as for `CCCCCCCCCCCC1=C(O)C(=O)C=C(O)C1=O` [Embelin] + NC(=O)Nc1cc(-c2cccc(F)c2)sc1C(=O)N[C@H]1CCCNC1 [AZD7762] (partner 0.2 µM), 0.384.
Same read-out and setting: as for `CCCCCCCCCCCC1=C(O)C(=O)C=C(O)C1=O` [Embelin] + CC(=O)c1c(C)c2cnc(Nc3ccc(N4CCNCC4)cn3)nc2n(C2CCCC2)c1=O [Palbociclib] (partner 0.5 µM), the figure is 0.65.

The experiment is the same for the next values; noted with them: first compound 8 µM.
As for `CCCCCCCCCCCC1=C(O)C(=O)C=C(O)C1=O` [Embelin] + N=C(N)NC(=N)NCCc1ccccc1 [Phenformin] (partner 250 µM), the relative viability was 0.395.
On to `CCCCCCCCCCCC1=C(O)C(=O)C=C(O)C1=O` [Embelin] + CCNC(=O)c1noc(-c2cc(C(C)C)c(O)cc2O)c1-c1ccc(CN2CCOCC2)cc1 [Luminespib] (partner 0.01 µM), for which the relative viability is 0.631.
As to `CCCCCCCCCCCC1=C(O)C(=O)C=C(O)C1=O` [Embelin] + Cc1nc(Nc2ncc(C(=O)Nc3c(C)cccc3Cl)s2)cc(N2CCN(CCO)CC2)n1 [Dasatinib] (partner 0.075 µM), the relative viability amounted to 0.352.
On the same count and under the same terms, as for `CCCCCCCCCCCC1=C(O)C(=O)C=C(O)C1=O` [Embelin] + NC(=O)Nc1cc(-c2cccc(F)c2)sc1C(=O)N[C@H]1CCCNC1 [AZD7762] (partner 0.2 µM), the figure is 0.366; as for `CCCCCCCCCCCC1=C(O)C(=O)C=C(O)C1=O` [Embelin] + CC(=O)c1c(C)c2cnc(Nc3ccc(N4CCNCC4)cn3)nc2n(C2CCCC2)c1=O [Palbociclib] (partner 0.5 µM), 0.563.

Another experiment relates to EPLC-272H. The experiment is described as above. The following applies: first compound 0.08 µM. The gist of the method: as §1
With `CCCCCCCCCCCC1=C(O)C(=O)C=C(O)C1=O` [Embelin] + N=C(N)NC(=N)NCCc1ccccc1 [Phenformin] (partner 250 µM), the relative viability is 0.307.
`CCCCCCCCCCCC1=C(O)C(=O)C=C(O)C1=O` [Embelin] + CCNC(=O)c1noc(-c2cc(C(C)C)c(O)cc2O)c1-c1ccc(CN2CCOCC2)cc1 [Luminespib] (partner 0.01 µM) displayed a relative viability of 0.69.
For `CCCCCCCCCCCC1=C(O)C(=O)C=C(O)C1=O` [Embelin] + Cc1nc(Nc2ncc(C(=O)Nc3c(C)cccc3Cl)s2)cc(N2CCN(CCO)CC2)n1 [Dasatinib] (partner 0.075 µM), the relative viability came out at 0.393.
On to `CCCCCCCCCCCC1=C(O)C(=O)C=C(O)C1=O` [Embelin] + NC(=O)Nc1cc(-c2cccc(F)c2)sc1C(=O)N[C@H]1CCCNC1 [AZD7762] (partner 0.2 µM), for which the relative viability worked out at 0.181.
On the same count and under the same terms, as for `CCCCCCCCCCCC1=C(O)C(=O)C=C(O)C1=O` [Embelin] + CC(=O)c1c(C)c2cnc(Nc3ccc(N4CCNCC4)cn3)nc2n(C2CCCC2)c1=O [Palbociclib] (partner 0.5 µM), the figure is 0.361.

Still in this experiment, the particulars now being: first compound 0.8 µM.
Regarding `CCCCCCCCCCCC1=C(O)C(=O)C=C(O)C1=O` [Embelin] + N=C(N)NC(=N)NCCc1ccccc1 [Phenformin] (partner 250 µM), the relative viability is 0.288.
Compound `CCCCCCCCCCCC1=C(O)C(=O)C=C(O)C1=O` [Embelin] + CCNC(=O)c1noc(-c2cc(C(C)C)c(O)cc2O)c1-c1ccc(CN2CCOCC2)cc1 [Luminespib] (partner 0.01 µM) registered a relative viability of 0.222.
The same measure, in the same setting: the same measure for `CCCCCCCCCCCC1=C(O)C(=O)C=C(O)C1=O` [Embelin] + Cc1nc(Nc2ncc(C(=O)Nc3c(C)cccc3Cl)s2)cc(N2CCN(CCO)CC2)n1 [Dasatinib] (partner 0.075 µM): 0.469; for `CCCCCCCCCCCC1=C(O)C(=O)C=C(O)C1=O` [Embelin] + NC(=O)Nc1cc(-c2cccc(F)c2)sc1C(=O)N[C@H]1CCCNC1 [AZD7762] (partner 0.2 µM): 0.296; for `CCCCCCCCCCCC1=C(O)C(=O)C=C(O)C1=O` [Embelin] + CC(=O)c1c(C)c2cnc(Nc3ccc(N4CCNCC4)cn3)nc2n(C2CCCC2)c1=O [Palbociclib] (partner 0.5 µM): 0.328.

Staying with this experiment, now noted: first compound 2.53 µM.
Compound `CCCCCCCCCCCC1=C(O)C(=O)C=C(O)C1=O` [Embelin] + N=C(N)NC(=N)NCCc1ccccc1 [Phenformin] (partner 250 µM) yielded a relative viability of 0.288.
Same read-out and setting: the same measure for `CCCCCCCCCCCC1=C(O)C(=O)C=C(O)C1=O` [Embelin] + CCNC(=O)c1noc(-c2cc(C(C)C)c(O)cc2O)c1-c1ccc(CN2CCOCC2)cc1 [Luminespib] (partner 0.01 µM): 0.253; for `CCCCCCCCCCCC1=C(O)C(=O)C=C(O)C1=O` [Embelin] + Cc1nc(Nc2ncc(C(=O)Nc3c(C)cccc3Cl)s2)cc(N2CCN(CCO)CC2)n1 [Dasatinib] (partner 0.075 µM): 0.442.
